Like-named read-outs stand apart in the source and are kept apart here.
Experiments:
PH domain of GRP [1] = molecular target: T1, PH domain of GRP (Mus musculus, UniProt O08967); experiment: Competition for [3H]dioctanoyl PtdIns(3,4,5)P3 binding to the PH domain of GRP; parameters: GST fused to the PH region of GRP (amino acids 239-399); made in house; host or cells: bacteria
T1 sequence (O08967 239-399): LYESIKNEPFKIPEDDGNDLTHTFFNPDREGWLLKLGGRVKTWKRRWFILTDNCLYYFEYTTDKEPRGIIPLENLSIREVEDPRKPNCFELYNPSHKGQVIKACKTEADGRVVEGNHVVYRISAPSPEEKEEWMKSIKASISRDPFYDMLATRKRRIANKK
Method: (§1) Binding assays were performed as described in (Rameh, L. E. et al., J. Biol. Chem., In Press). Briefly, GST fused to the PH region of GRP (amino acids 239-399) was bound to glutathione immobilized on agarose beads (Sigma). Synthetic [^3 H]-labeled diotanoyl PtdIns(3,4,5)P3 was added, and after one hour the beads were separated from the supernatant by centrifugation. The amount of [^3 H]-PtdIns(3,4,5)P3 bound to the PH domain was calculated by subtracting the amount of free [^3 H] present in supernatants from GST-GRP from the amount of free [^3 H] in supernatants from control GST. The data was fitted to the equation [bound]=Bmax×[free]/(KD + [free]) by least squares curve fit. For the competition assays the beads containing the GST-fusion proteins were incubated with 2.5 μM[^3 H]-labeled dioctanoyl PtdIns(3,4,5)P3 bound was calculated based on the amount of [^3 H] bound to the beads in the absence of competitor. The total [^3 H] bound to the GST control was less then 0.5% of the total [^3 H] bound to GRP PH domain. The data was fitted to the equation % bound=100-n×L/Klapp +L) where n is the % specific binding, L is the concentration of unlabeled lipid added and Klapp is the apparent competitive dissociation constant. The rations of the apparent dissociation constants accurately reflect the ratios of the true dissociation constants under the present experimental conditions (Rameh, L. E. et al., J. Biol. Chem., In Press).
The data depicted in FIG. 8 indicate that receptor signaling through PI3-kinases, which generates PtdIns(3,4,5)P3, may specifically regulate ARF proteins through GRP. In order to further test this, the relative binding affinities of PtdIns(3,4,5)P3 versus PtdIns (4,5)P2, which is constitutively present in cell membranes, for the PH domain of GRP were determined. A GST fusion protein of the PH domain of GRP was incubated with various concentrations of synthetic [^3 H]dioctanoyl PtdIns(3,4,5)P3 and binding was determined (FIG. 9A). These experiments show high affinity binding of this polyphosphoinositide,with a calculated Kd=0.5 μM.

PH domain of GRP [2] = molecular target: T1, PH domain of GRP; experiment: Binding of [3H]dioctanoyl PtdIns(3,4,5)P3 to GST-PH of GRP; parameters: GST fused to the PH region of GRP (amino acids 239-399); made in house; host or cells: bacteria
Method: as §1, with “The total [^3 H] bound to the GST control was less then 0.5% of the total [^3 H] bound to GRP PH domain. The data was fitted to the equation % bound=100-n×L/Klapp +L) where n is the % specific binding, L is the concentration of unlabeled lipid added and Klapp is the apparent competitive dissociation constant. The rations of the apparent dissociation constants accurately reflect the ratios of the true dissociation constants under the present experimental conditions (Rameh, L. E. et al., J. Biol. Chem., In Press).” left out
The data depicted in FIG. 8 indicate that receptor signaling through PI3-kinases, which generates PtdIns(3,4,5)P3, may specifically regulate ARF proteins through GRP. In order to further test this, the relative binding affinities of PtdIns(3,4,5)P3 versus PtdIns (4,5)P2, which is constitutively present in cell membranes, for the PH domain of GRP were determined. […] These experiments show high affinity binding of this polyphosphoinositide,with a calculated Kd=0.5 μM.

[3] = test system: receptor-regulated cell adhesion; details: cited from earlier work
GRP [4] = molecular target: T2, GRP (Mus musculus, UniProt O08967); experiment: Inhibition by inositol phosphates of PtdIns(3,4,5)P3-stimulated GRP-mediated ARF1 exchange; format: biochemical; details: 100 μM inositol phosphate, 0.05% cholate and 0.05% CHAPS
T2 construct: GST (N, cleaved yes); made in house; host or cells: GRP from pGEX-4T; ARF1 from baculovirus-infected Sf-9 cells
T2 sequence (O08967 1-399): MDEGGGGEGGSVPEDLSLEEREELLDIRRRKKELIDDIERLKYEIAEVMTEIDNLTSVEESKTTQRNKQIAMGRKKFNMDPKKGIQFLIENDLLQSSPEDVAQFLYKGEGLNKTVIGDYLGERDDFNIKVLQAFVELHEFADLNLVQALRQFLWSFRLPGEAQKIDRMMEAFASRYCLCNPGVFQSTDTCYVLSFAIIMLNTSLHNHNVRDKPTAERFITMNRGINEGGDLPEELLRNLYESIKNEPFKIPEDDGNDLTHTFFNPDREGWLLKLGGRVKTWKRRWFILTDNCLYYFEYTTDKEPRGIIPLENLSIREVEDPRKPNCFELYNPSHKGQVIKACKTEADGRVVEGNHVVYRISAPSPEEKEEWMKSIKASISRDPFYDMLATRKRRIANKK

PH domain of PLCγ1 = details: cited from earlier work
GSTPH(GRP) = molecular target: T3, GSTPH(GRP) (Mus musculus, UniProt O08967); experiment: Competition of [32P]PI(3,4,5)P3 binding to GST-PH by inositol phosphate head groups; parameters: species or system murine
T3 construct: residues 239 to 399 (PH domain); made in house; host or cells: bacteria
T3 sequence (O08967 239-399): T1 sequence (O08967 239-399)
From the text: To generate the GST fusion proteins, PCR reactions using the primers: […] (SEQ ID NO:9) and […] (SEQ ID NO:10) for the GST-N construct, […] (SEQ ID NO:11) and […] (SEQ ID NO:12) for the GST-Sec7 construct, […] (SEQ ID NO:13) and […] (SEQ ID NO:14) for the GSTPH construct, and […] (SEQ ID NO:15) and […] (SEQ ID NO:16) for the GSTGRP constructs. The sequences of the PCR products were verified, and cloned into pGEX-5X-3 in the EcoRI and Xba 1 sites. The bacteria were lysed and the fusion proteins were bound to gluthathione agarose according to standard procedures. Elution was effected by incubation of the beads with one volume 20 mM Hepes, 100 mM NaCl, 1 mM dithiotreitol (H buffer) supplemented with 10 mM gluthatione and 1% sodium cholate, and the eluate was dialyzed extensively against H buffer. For binding assays, protein was bound to nitrocellulose using a BIO-RAD BIO-DOT™ apparatus, using 150 pmol per well for binding assays and 7.5 pmol for competition assays. The nitrocellulose was washed in assay buffer, and 3 mm circles of the filters containing the protein were cut out and incubated in […] assay buffer with the relevant lipids and competitors for 2 h under constant agitation. The filters were washed four times with 1 mL assay buffer and counted in a scintillation counter.
The specificity of the GRP PH domain for binding [^32 P]PI(3,4,5,)P3 was also examined with respect to competition by the inositol phosphate head groups of the phosphoinositides. […] More specifically, 25,000 cpm of [^32 P]PI(3,4,5)P3 was incubated with varying concentrations of inositol 1 ,3,4,5P4 and bound radioactivity determined. The amount of radioactivity bound was calculated as percent of that bound in the absence of competitor. The values are means of quadruplicate measurements, and the error bars are standard deviations. The lack of inhibition by the latter two phosphoinositides is particularly striking since they carry the same charge as the inhibitor […] The concentration of inositol 1,3,4,5-P4 that inhibited binding of [^32 p]PI(3,4,5,)P3 half maximally was about 3-6 μM (FIG. 5A). Taken together, the data in FIGS. 4 and 5 indicate extraordinary specificity of the GRP PH domain for PI(3,4,5)P3. […] The binding to GST fusion proteins containing amino acids 462-569 of murine Sos or amino acid 13-115 of murine IRS-1 was assayed using 150 pmoles of protein bound to the filters. Competition of binding to 7.5 pmoles of GST-PH was measured in the presence of 100 μM of the competitors. The values were calculated as in (A), and are means of quadruplicate measurements and the error bars represent standard deviations.

PH domain of GRP [5] = molecular target: T1, PH domain of GRP; experiment: Binding specificity of the GRP PH domain for 32P-labeled phosphoinositides (GST-PH on nitrocellulose); parameters: species or system murine; details: GST-PH, 25,000 cpm lipid; relative to GST
Method: The 3'-phosphatidylinositol probes labeled at the 3' position were generated using GST-p110 PI3-kinase purified from recombinant bacculovirus infected Sf 9 cells, using either purified phosphatidylinositol phosphates or crude brain lipid. Briefly, 20 mg phospholipid in chloroform was dried under N2 and resuspended in […] of buffer containing Tris-HCl pH 7.4, EDTA 1 mM and incubated in […] phopsphorylation media containing 20 mM Tris-HCl pH 7.4, 100 mM NaCl, 10 mM MgCl2, 0.5 mM EGTA. 0.2 mM adenosine, GST-p110 and 5-10 mCi [g-^32 P]ATP (5 Ci/umol). The reaction was carried out for 2 h at room temperature, quenched by addition of 0.2 ml of 1M HCl, followed by 0.5 ml of chloroform:methanol (1:1). The organic phase containing phospholipids was washed 4 times with 0.4 ml of methanol:HCl (1: 1) and stored at -70° C. until use. Just before use, the lipid was dried under a stream of nitrogen with phosphatidyl serine corresponding to a final concentration of 20 mg/ml. The identities of the PI3-P, PI3,4-P2 and PI3,4,5-P3 were confirmed by TLC and HPLC analysis.
To generate the GST fusion proteins, PCR reactions using the primers: […] (SEQ ID NO:9) and […] (SEQ ID NO:10) for the GST-N construct, […] (SEQ ID NO:11) and […] (SEQ ID NO:12) for the GST-Sec7 construct, […] (SEQ ID NO:13) and […] (SEQ ID NO:14) for the GSTPH construct, and […] […] The filters were washed four times with 1 mL assay buffer and counted in a scintillation counter.
In order to determine whether PI(3,4,5)P3 binding could be localized to specific sequences within the GRP structure, GST fusion proteins containing either residues 239 to 399 (PH domain), residues 52 to 260 (Sec7 domain), or residues 5 to 71, full length GRP residues 5-399 were expressed in bacteria and purified on glutathione-conjugated beads. […] 150 pmol of the proteins were spotted on nitrocellulose filters, incubated with [^32 P]PI(3,4,5)P3 and the amount of bound lipid was determined as described. […] Nitrocellulose filters with GST-PH were incubated with 25,000 cpm of each of the phospholipids and the amount of bound lipid determined as described above. […]

[6] = molecular target: T4, proteins encoded by both brain and adipocyte cDNA clones (GRP) (Mus musculus, UniProt O08967); experiment: Binding of 32P-labeled phosphoinositides to protein of isolated cDNA clones on nitrocellulose filters (library screen); details: library screening conditions
T4 construct: lack four residues
T4 sequence (O08967 5-399): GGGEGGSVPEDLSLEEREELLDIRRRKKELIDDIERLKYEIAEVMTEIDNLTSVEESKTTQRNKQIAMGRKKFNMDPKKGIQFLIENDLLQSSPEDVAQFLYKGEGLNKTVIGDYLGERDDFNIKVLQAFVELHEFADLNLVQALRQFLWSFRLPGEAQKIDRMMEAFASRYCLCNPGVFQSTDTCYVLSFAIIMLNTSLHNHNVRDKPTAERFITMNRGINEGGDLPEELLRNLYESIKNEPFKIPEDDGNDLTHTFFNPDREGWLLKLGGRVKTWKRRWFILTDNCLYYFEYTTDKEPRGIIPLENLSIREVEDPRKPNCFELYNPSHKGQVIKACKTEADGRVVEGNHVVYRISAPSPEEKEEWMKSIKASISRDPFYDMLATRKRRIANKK

GRP [7] = molecular target: T2, GRP; experiment: Effect of phosphoinositides on GRP-catalyzed ARF1 guanine nucleotide exchange; format: biochemical; details: 25 μM lipid, 0.15 μM GRP

CCCCCCCC(=O)OC[C@H](COP(=O)(O)O[C@H]1[C@H](O)[C@@H](OP(=O)(O)O)[C@H](OP(=O)(O)O)[C@@H](OP(=O)(O)O)[C@H]1O)OC(=O)CCCCCCC [dioctanoyl PtdIns(3,4,5)P3]
affinity, fold higher compared to PtdIns(4,5)P2 (PH domain of GRP [1]; identical fatty acyl side chains (dioctanoyl)): 50-100 fold

CCCCCCCC(=O)OCC(COP(=O)(O)O[C@H]1[C@H](O)[C@@H](OP(=O)(O)O)[C@H](OP(=O)(O)O)[C@@H](OP(=O)(O)O)[C@H]1O)OC(=O)CCCCCCC (stereo partly drawn) [[^3 H]dioctanoyl PtdIns(3,4,5)P3]
Kd (PH domain of GRP [2]): 510 nM
Kd (PH domain of GRP [2]; synthetic [^3 H]dioctanoyl PtdIns(3,4,5)P3): 500 nM

CCCCCCCC(=O)OC[C@H](COP(=O)(O)O[C@@H]1[C@H](O)[C@H](O)[C@@H](OP(=O)(O)O)[C@H](OP(=O)(O)O)[C@H]1O)OC(=O)CCCCCCC [dioctanoyl PtdIns(4,5)P2]
apparent affinity lower than that for dioctanoyl PtdIns(3,4,5)P3 (PH domain of GRP [1]; dioctanoyl): about two orders of magnitude lower

COC[C@H]1OC(=O)c2coc3c2[C@@]1(C)C1=C(C3=O)[C@@H]2CCC(=O)[C@@]2(C)C[C@H]1OC(C)=O [wortmannin]
receptor-regulated cell adhesion [3]: inhibits receptor-regulated cell adhesion

O=P(O)(O)O[C@@H]1[C@H](O)[C@H](O)[C@@H](OP(=O)(O)O)[C@H](OP(=O)(O)O)[C@H]1O [Ins(1,4,5)P3, D-myo-inositol 1,4,5 trisphosphate]
inhibition of PtdIns(3,4,5)P3-stimulated GRP-mediated ARF1 guanine nucleotide exchange (GRP [4]): failed to inhibit
interaction with isolated PH domain of PLCγ1 (PH domain of PLCγ1): high affinity
inhibition of [^32 P]PI(3,4,5)P3 binding to GST-PH(GRP) (GSTPH(GRP); 100 μM competitor): little or no effect
binding of inositol phosphate to GRP polypeptides (GSTPH(GRP); statement in the description): not

PI(3)P
binding of labeled phosphoinositide to the GRP PH domain (PH domain of GRP [5]): failed to bind
binding of labeled phosphoinositide to the cDNA clone protein [6]: not

PtdIns(3,4)P2
stimulation of ARF1 exchange activity in the presence of GRP (GRP [7]; 0.05% cholate and 0.05% CHAPS (low negative charge)): little or no effect
stimulation of ARF1 exchange activity in the presence of GRP (GRP [7]; 0.1% cholate (high negative charge)): stimulated
binding of labeled phosphoinositide to the GRP PH domain (PH domain of GRP [5]): failed to bind
binding of labeled phosphoinositide to the cDNA clone protein [6]: not

Source: US6194173A, “Binding proteins for phosphoinositides, GRP1 or general receptor 1 for phophoinositide” (priority 1999, dated 2001)
